# Patent US20110201568A1, “PHYOTOCHEMICAL COMPOSITION AND A PROCESS THEREOF” (priority 2008, published 2011)
# Like-named read-outs stand apart in the source and are kept apart here.
# Experiments:
# [1] = molecular target: porcine pancreatic elastase (Sus scrofa, UniProt P00772); assay: Elastase inhibition assay; assay type: biochemical
# Description: In brief, 233 μl of each test solutions/reference standard (various concentrations) in 100 mM Tris-HCl pH8.0 and 7 μl of enzyme (porcine pancreatic elastase, 0.84 units/ml) solution was incubated at 37° C. for 15 mins. Following incubation, 20 μl of substrate (n-succinyl-ala-ala-ala-p-nitroanilide) solution was added and incubated at 37° C. for 30 mins. The absorbance was measured at 405 nm. A control reaction was carried out without the test sample. The percentage inhibition was calculated by the equation [absorbance (control)−absorbance (test)]/absorbance (control)×100]. The IC50 values were determined using log-probit analysis.
# [2] = test system: Helicobacter pylori; assay: Anti Helicobacter pylori activity, overall observations; assay type: cell-based; details: strains 80A and ATCC 43504
# [3] = test system: Helicobacter pylori clinical strain 80A; assay: MIC/MBC microbroth dilution assay, strain 80A; assay type: cell-based; details: cell count ~10^6-10^7 CFU/ml
# Description: (§1) • MICs of the two samples were determined employing one clinical (80A) and one standard (ATCC 43504) strain (Osato, 2000). • Two-fold serial dilutions of the samples were performed in 96-well microtitre plate. • Plates were kept for appropriate time in Incubator under optimum growth condition. • Following incubation, the plates were examined visually, and the lowest concentration showing complete inhibition of growth was recorded as the MIC of the respective sample.
# (§2) • Aliquots of culture in which no growth had been detected were taken from the wells of the above microtitre plates and used to streak on fresh agar plates. • MBCs were determined by visual inspection of such plates after further incubation and the point where no growth (less than 10 colony) appeared was considered as the MBCs.
# [4] = test system: Helicobacter pylori standard strain ATCC 43504; assay: Anti Helicobacter pylori disc diffusion sensitivity assay, standard strain ATCC 43504; assay type: cell-based; details: 40 ng/disc (standard drug)
# Description: (§3) For water containing sample, discs were first placed on the plate and then 5-10 μl of each sample, was added. The results are shown in below table: 10.
# [5] = test system: Helicobacter pylori clinical strain 80A; assay: Anti Helicobacter pylori disc diffusion sensitivity assay, clinical strain 80A; assay type: cell-based; details: 10 ng/disc (standard drug)
# Description: as §3
# [6] = test system: Helicobacter pylori standard strain ATCC 43504; assay: MIC/MBC microbroth dilution assay, strain ATCC 43504; assay type: cell-based; details: ATCC43504, cell count ~10^6-10^7 CFU/ml
# Description: as §1, §2
# [7] = test system: pylorus ligation induced ulcer; assay: Pylorus ligation induced ulcer model; assay type: in vivo, albino Wistar rats; details: 10 mg/kg; mean ± SEM, n = 6
# Excerpt: Details of the study are provided in the below table: 4. [table]
# [8] = test system: cold stress induced ulcer; assay: Cold stress induced ulcer model; assay type: in vivo, albino Wistar rats
# [9] = porcine pancreatic elastase, log-probit analysis, read-out: IC50 in elastase inhibition assay (converted)
# porcine pancreatic elastase, sequence (P00772 27-266): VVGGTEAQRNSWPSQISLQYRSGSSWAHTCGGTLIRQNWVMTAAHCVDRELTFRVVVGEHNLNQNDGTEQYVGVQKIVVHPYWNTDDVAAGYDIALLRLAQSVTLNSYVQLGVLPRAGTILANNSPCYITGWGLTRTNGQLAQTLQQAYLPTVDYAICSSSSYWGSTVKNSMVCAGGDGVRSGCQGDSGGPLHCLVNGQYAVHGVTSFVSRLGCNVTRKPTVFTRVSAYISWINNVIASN
smiles,measurement,setting,value
"CCCCCCCCCCCCCCCCCCCCOC(=O)/C=C/c1ccc(O)c(O)c1 [Eicosanyl caffeate(1), eicosanyl caffeate]",IC50,[1]; [9],2150 nM
CC[C@H]1OC(=O)[C@H](C)[C@@H](O[C@H]2C[C@@](C)(OC)[C@@H](O)[C@H](C)O2)[C@H](C)[C@@H](O[C@@H]2O[C@H](C)C[C@H](N(C)C)[C@H]2O)[C@](C)(OC)C[C@@H](C)C(=O)[C@H](C)[C@@H](O)[C@]1(C)O [Clarithromycin],anti Helicobacter pylori activity (disc diffusion observation),[2],showed appropriate zone of inhibition
same,MBC,[3],0.025 µg/mL
same,MIC,[3],0.013 µg/mL
same,Inhibition Zone Diameter in strain ATCC 43504,[4],1.8-2.0 cm
same,Inhibition Zone Diameter in strain 80A,[5],1.8-2.0 cm
same,MBC,[6],0.05 µg/mL
same,MIC,[6],0.025 µg/mL
COc1ccc2[nH]c([S+]([O-])Cc3ncc(C)c(OC)c3C)nc2c1 (centres unmarked) [Omeprazole],Gastric content,[7],2.42 ± 0.24 mL
same,Total acidity,[7],15.33 ± 0.92 mEq/L/100 g
same,Ulcer index,[7],3.33 ± 1.38
same,pH,[7],6.89 ± 0.14
same,Ulcer index,"[8]; 10 mg/kg, mean ± SEM, n = 6",0.67 ± 0.49
same,pH,"[8]; 10 mg/kg, mean ± SEM, n = 6",6.50 ± 0.22
same,pH of stomach,"[8]; comparison Table 12 remark, ulcer model not specified",the pH to more than 6
C[C@H]1[C@H](C)CC[C@]2(C(=O)O)CC[C@]3(C)C(=CC[C@@H]4[C@@]5(C)CC[C@H](O)C(C)(C)[C@@H]5CC[C@]43C)[C@H]12 [Ursolic acid],IC50,[1],23600 nM
"CCCCCCCCCCCCCCCCCCCCCCOC(=O)/C=C/c1ccc(O)c(O)c1 [Docosyl caffeate (2), docosyl caffeate]",IC50,[1]; [9],2860 nM
